Assay results as given in article PMC10644342, “Improved Antibacterial Activity of 1,3,4-Oxadiazole-Based Compounds That Restrict Staphylococcus aureus Growth Independent of LtaS Function” (ACS Infectious Diseases, 2023).
Converted amounts (≈) assume the structure as drawn.

How the values were obtained:
[1] = test system: S. aureus wild type, clpX, ltaS, tarO mutants and ltaS overexpression strains; test: MIC against LtaS deletion and overexpression strains; type: cell-based, Staphylococcus aureus; conditions: Staphylococcus aureus, NEWMAN
Description: S. aureus, S. epidermidis, E. faecalis, and E. faecium strains were routinely cultivated on tryptic soy agar (TSA) and grown for 18 h at 37 °C. S. aureus single colonies were subsequently transferred into 2 mL of tryptic soy broth (TSB) and grown for a further 18 h at 37 °C while being shaken at 180 rpm. S. pyogenes, S. agalactiae, and S. dysgalactiae strains were routinely cultured on TSA supplemented with 5% sheep blood and grown for 18 h at 37 °C with 5% CO2. E. coli was grown in LB broth at 37 °C. For LtaS-deficient strains, TSB was supplemented with 0.5 M NaCl to provide an osmotically balanced environment and instead grown at 30 °C. For strains harboring the pRMC2 tetracycline inducible vector,[61] the growth medium was supplemented with 10 μg/mL chloramphenicol and […] anhydrotetracycline hydrochloride (Sigma). Phenylalanine-arginine β-naphthylamide (PAβN) (Sigma) was dissolved in sterile water.
B. subtilis, staphylococcal, and enterococcal strains were grown in Mueller Hinton broth (MHB), while streptococcal strains were grown in MHB supplemented with 5% laked horse blood. All strains were grown for 18 h at 37 °C. The overnight cultures were subsequently subcultured 1:200 and grown to the exponential phase (OD600nm = 0.5–0.6) in fresh broth. 1771 and its derivatives 9–14 were reconstituted in DMSO and further diluted by performing a 1:2 serial dilution ranging between 256 and 0.125 μg/mL in a 96-well microtiter plate. One hundred microliters of 0.5 McFarland standardized inoculum (approximately equal to 5 × 10^5 cfu) were then dispensed into each well in the 96-well microtiter plate. The plate was incubated for 18 h at 37 °C.
For overexpression studies, full-length ltaS was amplified by PCR using MRSA strian LAC genomic DNA, primer pair LtaS-FW: 5′-[…]-3′ and LtaS-RV: 5′-[…]-3′, and Phusion High-Fidelity DNA Polymerase (Thermo Fisher). The resulting PCR product was cloned into the tetracycline inducible plasmid pRMC2 using SacI and KpnI restriction sites and T4 ligase (NEB). The cloned vector was subsequently transformed into RN4220 followed by LAC through electroporation.

LtaS = test system: LtaS; parameters: method as in PMID 29300473; conditions: LtaS in artificial liposomes; cited from earlier work
S. aureus = test system: S. aureus; parameters: method as in PMID 23401520; conditions: cited from earlier work
HL-60 cell line = conditions: cited from earlier work

Row | SMILES | MIC [1] [µg/mL] | MIC ([1]; Newman ΔtarO) [µg/mL] | MIC ([1]; Newman ΔtarO pRMC2 (empty vector)) [µg/mL] | MIC ([1]; Newman ΔtarO pltaS (ltaS overexpression)) [µg/mL] | inhibition of LtaS polymerization activity (LtaS) | frequency of mutant selection (S. aureus) | Cell health index (CHI) (HL-60 cell line)
1 | Nc1c(/N=N/c2ccc(-c3ccc(/N=N/c4cc(S(=O)(=O)O)c5ccccc5c4N)cc3)cc2)cc(S(=O)(=O)O)c2ccccc12 [Congo red] | > 512 | 64 (≈ 98.1 µM) | 64 (≈ 98.1 µM) | 256 (≈ 392 µM) | blocked LtaS function | – | –
2 | [H]/N=C(/N)N[C@H]1[C@H](O)[C@@H](O)[C@H](O[C@@H]2O[C@@H](C)[C@](O)(C=O)[C@H]2O[C@@H]2O[C@@H](CO)[C@H](O)[C@@H](O)[C@@H]2NC)[C@@H](N/C(N)=N\[H])[C@@H]1O [streptomycin] | – | – | – | – | – | < 10^–7 | 0.19
